The record followed here is publication PMC11995724, “Antibiotic target discovery by integrated phenotypic and activity-based profiling of electrophilic fragments” (Cell chemical biology, 2025).

One may read the viability as a read-out of living cells in per cent, often relative to untreated cells.

The series is described as follows: in vitro. The conditions noted are these: human, hek293t cells.
On to `C=CC(=O)Nc1ccc(C(=O)N2CCCC2C(=O)NC2CC2)cc1` (stereo not shown) [2-I21, N-cyclopropyl-1-[4-(prop-2-enamido)benzoyl]pyrrolidine-2-carboxamide], for which the viability at 48 h, 25 µM was 175%.

In the case of `C=CC(=O)Nc1ccc(N2CCCCC2)c(F)c1` [2-I22, N-[3-fluoro-4-(piperidin-1-yl)phenyl]prop-2-enamide], the viability at 48 h, 25 µM stood at 92.5%. As for `C=CC(=O)NCC1CCc2nnc(C(C)C)n2C1` (stereo not shown) [2-J03, N-{[3-(propan-2-yl)-5H,6H,7H,8H-[1,2,4]triazolo[4,3-a]pyridin-6-yl]methyl}prop-2-enamide], the figure is 60.6%; as for `C=CC(=O)N(C)CC(=O)N1CCOC(c2ccccc2Cl)C1` (stereo not shown) [2-J04, N-{2-[2-(2-chlorophenyl)morpholin-4-yl]-2-oxoethyl}-N-methylprop-2-enamide], 72.1%; as for `C=CC(=O)NC(C)C(c1ccccc1Cl)n1cccn1` (stereo not shown) [2-J05, N-[1-(2-chlorophenyl)-1-(1H-pyrazol-1-yl)propan-2-yl]prop-2-enamide], 84.5%. As for `C=CC(=O)N1CCC(C(=O)N2CCC(Cc3ncon3)CC2)CC1` [2-J06, 1-(4-{4-[(1,2,4-oxadiazol-3-yl)methyl]piperidine-1-carbonyl}piperidin-1-yl)prop-2-en-1-one], the figure is 74.2%.

Regarding `C=CC(=O)NCc1c(Cl)c(C(F)(F)F)nn1C` [2-J07, N-{[4-chloro-1-methyl-3-(trifluoromethyl)-1H-pyrazol-5-yl]methyl}prop-2-enamide], the viability at 48 h, 25 µM amounted to 72.8%. The figure for `C=CC(=O)N1CCC(C(=O)N[C@H]2CC[C@@H](S(C)(=O)=O)CC2)CC1` [2-J08, 1-(prop-2-enoyl)-N-[(1s,4s)-4-methanesulfonylcyclohexyl]piperidine-4-carboxamide] is 86.3%; for `C=CC(=O)N1CCC(C(=O)Nc2cccc(-c3n[nH]c(C)n3)c2)CC1` [2-J09, N-[3-(5-methyl-1H-1,2,4-triazol-3-yl)phenyl]-1-(prop-2-enoyl)piperidine-4-carboxamide] it is 58.8%; for `C=CC(=O)N1CCC(C(=O)N2CCCC(C)(CC)C2)CC1` (stereo not shown) [2-J10, 1-[4-(3-ethyl-3-methylpiperidine-1-carbonyl)piperidin-1-yl]prop-2-en-1-one] it is 67.4%.

`C=CC(=O)NCC(O)c1ncccc1OC` (stereo not shown) [2-J11, N-[2-hydroxy-2-(3-methoxypyridin-2-yl)ethyl]prop-2-enamide]: the viability at 48 h, 25 µM was determined as 80.8%. Turning to `C=CC(=O)N1CCC(C(=O)N(C)CCn2cccn2)CC1` [2-J12, N-methyl-1-(prop-2-enoyl)-N-[2-(1H-pyrazol-1-yl)ethyl]piperidine-4-carboxamide], the viability at 48 h, 25 µM worked out at 74.5%. As for `C=CC(=O)N(C)Cc1cn(C2CC2)cn1` [2-J13, N-[(1-cyclopropyl-1H-imidazol-4-yl)methyl]-N-methylprop-2-enamide], the figure is 76.5%; as for `C=CC(=O)N1CCC(C(=O)N2CCC(CC(N)=O)C2)CC1` (stereo not shown) [2-J14, 2-{1-[1-(prop-2-enoyl)piperidine-4-carbonyl]pyrrolidin-3-yl}acetamide], 65%. On to `C=CC(=O)NCc1ccsc1S(N)(=O)=O` [2-J15, N-[(2-sulfamoylthiophen-3-yl)methyl]prop-2-enamide], for which the viability at 48 h, 25 µM turned out to be 53.1%. For the compound `C=CC(=O)N(CC)CC(=O)N1CC(C)(C)C1c1nccn1C` (stereo not shown) [2-J16, N-{2-[3,3-dimethyl-2-(1-methyl-1H-imidazol-2-yl)azetidin-1-yl]-2-oxoethyl}-N-ethylprop-2-enamide], the viability at 48 h, 25 µM came to 59.5%. In the case of `C=CC(=O)NC1(Cn2cccn2)CC(F)(F)C1` [2-J17, N-{3,3-difluoro-1-[(1H-pyrazol-1-yl)methyl]cyclobutyl}prop-2-enamide], the viability at 48 h, 25 µM amounted to 54.5%. The figure for `C=CC(=O)NCCNC(=O)[C@@]12CC[C@@](C)(C(=O)O1)C2(C)C` [2-J18, N-(2-{[(1S,4R)-4,7,7-trimethyl-3-oxo-2-oxabicyclo[2.2.1]heptan-1-yl]formamido}ethyl)prop-2-enamide] is 52.8%; for `C=CC(=O)NC1CCS(=O)(=O)c2ccc(F)cc21` (stereo not shown) [2-J19, N-(6-fluoro-1,1-dioxo-3,4-dihydro-2H-1lambda6-benzothiopyran-4-yl)prop-2-enamide] it is 55.4%.

On to `C=CC(=O)NCc1ccc(C(=O)N2CCC(C(C)(C)O)CC2)cc1` [2-J20, N-({4-[4-(2-hydroxypropan-2-yl)piperidine-1-carbonyl]phenyl}methyl)prop-2-enamide], for which the viability at 48 h, 25 µM came to 74.2%. With `C=CC(=O)N1CCC(c2nnc3n2CCCC3)CC1` [2-J21, 1-(4-{5H,6H,7H,8H-[1,2,4]triazolo[4,3-a]pyridin-3-yl}piperidin-1-yl)prop-2-en-1-one], the viability at 48 h, 25 µM is 67.6%.

For the compound `C=CC(=O)N(C)CC(=O)N1CCN(C(=O)c2cccc(O)c2)CC1` [2-J22, N-{2-[4-(3-hydroxybenzoyl)piperazin-1-yl]-2-oxoethyl}-N-methylprop-2-enamide], the viability at 48 h, 25 µM turned out to be 97.7%.

As to `C=CC(=O)N1CCC(c2nc(C(=O)O)co2)CC1` [2-K03, 2-[1-(prop-2-enoyl)piperidin-4-yl]-1,3-oxazole-4-carboxylic acid], the viability at 48 h, 25 µM is 99.1%. The figure for `C=CC(=O)N1CCC(C(=O)N[C@H]2CCC[C@H]2O)CC1` [2-K04, N-[(1S,2R)-2-hydroxycyclopentyl]-1-(prop-2-enoyl)piperidine-4-carboxamide] is 84.2%; for `C=CC(=O)N(Cc1ccc(Cl)o1)C1CCCC12CCOCC2` (stereo not shown) [2-K05, N-[(5-chlorofuran-2-yl)methyl]-N-{8-oxaspiro[4.5]decan-1-yl}prop-2-enamide] it is 99.7%. Consider `C=CC(=O)N1C2CCCC1CC1(C2)NC(=O)NC1=O` (stereo not shown) [2-K06, 9-(prop-2-enoyl)-9-azaspiro[bicyclo[3.3.1]nonane-3,4'-imidazolidine]-2',5'-dione], for which the viability at 48 h, 25 µM worked out at 89.2%. As for `C=CC(=O)N1CCCCC1Cn1ccnn1` (stereo not shown) [2-K07, 1-{2-[(1H-1,2,3-triazol-1-yl)methyl]piperidin-1-yl}prop-2-en-1-one], the figure is 89.3%. As for `C=CC(=O)NCCC(=O)N1CCSC(C)CC1` (stereo not shown) [2-K08, N-[3-(7-methyl-1,4-thiazepan-4-yl)-3-oxopropyl]prop-2-enamide], the figure is 91.8%. As to `C=CC(=O)N1CCC(c2nc(N(C)C)no2)CC1` [2-K09, 1-{4-[3-(dimethylamino)-1,2,4-oxadiazol-5-yl]piperidin-1-yl}prop-2-en-1-one], the viability at 48 h, 25 µM was found to be 194%. As for `C=CC(=O)N(C)CC(=O)N1CCn2cccc2C1C` (stereo not shown) [2-K10, N-methyl-N-(2-{1-methyl-1H,2H,3H,4H-pyrrolo[1,2-a]pyrazin-2-yl}-2-oxoethyl)prop-2-enamide], the figure is 101%; as for `C=CC(=O)Nc1ccc(F)c(-n2nnnc2C)c1` [2-K11, N-[4-fluoro-3-(5-methyl-1H-1,2,3,4-tetrazol-1-yl)phenyl]prop-2-enamide], 195%.

For `C=CC(=O)N1CCCC(c2nc(C)no2)C1` (stereo not shown) [2-K12, 1-[3-(3-methyl-1,2,4-oxadiazol-5-yl)piperidin-1-yl]prop-2-en-1-one], the viability at 48 h, 25 µM is 101%.

As for `C=CC(=O)Nc1ccnn1C1CCCC1` [2-K13, N-(1-cyclopentyl-1H-pyrazol-5-yl)prop-2-enamide], the viability at 48 h, 25 µM came out at 24%.

For `C=CC(=O)NC(Cc1ccccc1)c1ccccn1` (stereo not shown) [2-K14, N-[2-phenyl-1-(pyridin-2-yl)ethyl]prop-2-enamide], the viability at 48 h, 25 µM worked out at 113%. For `C=CC(=O)N1CCC(C(=O)Nc2nc3cc(F)c(C)cc3s2)CC1` [2-K15, N-(5-fluoro-6-methyl-1,3-benzothiazol-2-yl)-1-(prop-2-enoyl)piperidine-4-carboxamide], the viability at 48 h, 25 µM came out at 191%. Consider `C=CC(=O)Nc1ccc2nc(O)n(C3CC3)c2c1` [2-K16, N-(1-cyclopropyl-2-hydroxy-1H-1,3-benzodiazol-6-yl)prop-2-enamide], for which the viability at 48 h, 25 µM came to 83.3%. Regarding `C=CC(=O)N1CCC(NC(=O)c2oc(C)cc2C)CC1` [2-K17, 3,5-dimethyl-N-[1-(prop-2-enoyl)piperidin-4-yl]furan-2-carboxamide], the viability at 48 h, 25 µM was 79.7%. As for `C=CC(=O)N1CCC(C(=O)NC2CCCc3cc(F)ccc32)CC1` (stereo not shown) [2-K18, N-(6-fluoro-1,2,3,4-tetrahydronaphthalen-1-yl)-1-(prop-2-enoyl)piperidine-4-carboxamide], the figure is 94.2%. Take `C=CC(=O)N[C@H]1CCO[C@@H]1c1ccnn1C` [2-K19, N-[(2S,3S)-2-(1-methyl-1H-pyrazol-5-yl)oxolan-3-yl]prop-2-enamide]: the viability at 48 h, 25 µM turned out to be 96.4%. As to `C=CC(=O)N1CCC(C(=O)N(C)C(C)CC(N)=O)CC1` (stereo not shown) [2-K20, 3-{N-methyl-1-[1-(prop-2-enoyl)piperidin-4-yl]formamido}butanamide], the viability at 48 h, 25 µM came to 88.3%.

With `C=CC(=O)Nc1ccc(C(=O)NCC2CSCCS2)cc1` (stereo not shown) [2-K21, N-[(1,4-dithian-2-yl)methyl]-4-(prop-2-enamido)benzamide], the viability at 48 h, 25 µM amounted to 91.9%. With `C=CC(=O)N(C)Cc1nc2c(n1C)CCCC2` [2-K22, N-methyl-N-[(1-methyl-4,5,6,7-tetrahydro-1H-1,3-benzodiazol-2-yl)methyl]prop-2-enamide], the viability at 48 h, 25 µM turned out to be 87.1%. On to `C=CC(=O)NC1(Cc2nnc3ccccn23)CCCCC1` [2-L03, N-[1-({[1,2,4]triazolo[4,3-a]pyridin-3-yl}methyl)cyclohexyl]prop-2-enamide], for which the viability at 48 h, 25 µM came out at 76.2%.

For `C=CC(=O)N(C)CC(=O)N1CCN(c2ccccc2[N+](=O)[O-])CC1` [2-L04, N-methyl-N-{2-[4-(2-nitrophenyl)piperazin-1-yl]-2-oxoethyl}prop-2-enamide], the viability at 48 h, 25 µM stood at 83.6%.

As to `C=CC(=O)NCCc1nnc(C(C)C)s1` [2-L05, N-{2-[5-(propan-2-yl)-1,3,4-thiadiazol-2-yl]ethyl}prop-2-enamide], the viability at 48 h, 25 µM is 61.9%. Consider `C=CC(=O)N1CCC(C(=O)N2CCN(c3ccnc(C)n3)CC2)CC1` [2-L06, 1-{4-[4-(2-methylpyrimidin-4-yl)piperazine-1-carbonyl]piperidin-1-yl}prop-2-en-1-one], for which the viability at 48 h, 25 µM came out at 88.5%.
